Assay results from PubChem BioAssay (NCI).
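Abbreviation: GI50, concentration required for 50% inhibition of growth. TGI: concentration producing complete growth inhibition.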

Legend:
Assay in all cases: NCI-60 cell line screen, 384-well format
786-0 renal = test system: 786-0 renal
A498 renal = test system: A498 renal
A549 NSCLC = test system: A549 NSCLC
ACHN renal = test system: ACHN renal
BT-549 breast = test system: BT-549 breast
CAKI-1 renal = test system: CAKI-1 renal
CCRF-CEM leukemia = test system: CCRF-CEM leukemia
COLO 205 colon = test system: COLO 205 colon
DU-145 prostate = test system: DU-145 prostate
EKVX NSCLC = test system: EKVX NSCLC
HCC-2998 colon = test system: HCC-2998 colon
HCT-116 colon = test system: HCT-116 colon
HCT-15 colon = test system: HCT-15 colon
HL-60(TB) leukemia = test system: HL-60(TB) leukemia
HOP-62 NSCLC = test system: HOP-62 NSCLC
HOP-92 NSCLC = test system: HOP-92 NSCLC
HS 578T breast = test system: HS 578T breast
HT29 colon = test system: HT29 colon
IGROV1 ovarian = test system: IGROV1 ovarian
KM12 colon = test system: KM12 colon
LOX IMVI melanoma = test system: LOX IMVI melanoma
M14 melanoma = test system: M14 melanoma
MALME-3M melanoma = test system: MALME-3M melanoma
MCF7 breast = test system: MCF7 breast
MDA-MB-231 breast = test system: MDA-MB-231 breast
MDA-MB-435 melanoma = test system: MDA-MB-435 melanoma
MDA-MB-468 breast = test system: MDA-MB-468 breast
MOLT-4 leukemia = test system: MOLT-4 leukemia
NCI-H226 lung = test system: NCI-H226 lung
NCI-H23 lung = test system: NCI-H23 lung
NCI-H322M lung = test system: NCI-H322M lung
NCI-H460 NSCLC = test system: NCI-H460 NSCLC
NCI-H522 lung = test system: NCI-H522 lung
NCI/ADR-RES ovarian = test system: NCI/ADR-RES ovarian
OVCAR-3 ovarian = test system: OVCAR-3 ovarian
OVCAR-4 ovarian = test system: OVCAR-4 ovarian
OVCAR-5 ovarian = test system: OVCAR-5 ovarian
OVCAR-8 ovarian = test system: OVCAR-8 ovarian
PC-3 prostate = test system: PC-3 prostate
RPMI-8226 leukemia = test system: RPMI-8226 leukemia
RXF 393 renal = test system: RXF 393 renal
SF-268 CNS = test system: SF-268 CNS
SF-295 CNS = test system: SF-295 CNS
SF-539 CNS = test system: SF-539 CNS
SK-MEL-28 melanoma = test system: SK-MEL-28 melanoma
SK-MEL-5 melanoma = test system: SK-MEL-5 melanoma
SK-OV-3 ovarian = test system: SK-OV-3 ovarian
SN12C renal = test system: SN12C renal
SNB-19 CNS = test system: SNB-19 CNS
SNB-75 CNS = test system: SNB-75 CNS
SR leukemia = test system: SR leukemia
SW-620 colon = test system: SW-620 colon
T-47D breast = test system: T-47D breast
TK-10 renal = test system: TK-10 renal
U251 glioblastoma = test system: U251 glioblastoma
UACC-257 melanoma = test system: UACC-257 melanoma
UACC-62 melanoma = test system: UACC-62 melanoma
UO-31 renal = test system: UO-31 renal

CNC(=O)c1c(C)oc2cc(Oc3ncnc4cc(OC)c(OC)cc34)ccc12
GI50 (786-0 renal): > 100 µM
TGI (786-0 renal): > 100 µM
GI50 (A498 renal): > 100 µM
TGI (A498 renal): > 100 µM
GI50 (A549 NSCLC): > 100 µM
TGI (A549 NSCLC): > 100 µM
GI50 (ACHN renal): > 100 µM
TGI (ACHN renal): > 100 µM
GI50 (BT-549 breast): 11.5 µM
TGI (BT-549 breast): > 100 µM
GI50 (CAKI-1 renal): > 100 µM
TGI (CAKI-1 renal): > 100 µM
GI50 (CCRF-CEM leukemia): > 100 µM
TGI (CCRF-CEM leukemia): > 100 µM
GI50 (COLO 205 colon): > 100 µM
TGI (COLO 205 colon): > 100 µM
GI50 (DU-145 prostate): > 100 µM
TGI (DU-145 prostate): > 100 µM
GI50 (EKVX NSCLC): > 100 µM
TGI (EKVX NSCLC): > 100 µM
GI50 (HCC-2998 colon): > 100 µM
TGI (HCC-2998 colon): > 100 µM
GI50 (HCT-116 colon): > 100 µM
TGI (HCT-116 colon): > 100 µM
GI50 (HCT-15 colon): > 100 µM
TGI (HCT-15 colon): > 100 µM
GI50 (HL-60(TB) leukemia): > 100 µM
TGI (HL-60(TB) leukemia): > 100 µM
GI50 (HOP-62 NSCLC): > 100 µM
TGI (HOP-62 NSCLC): > 100 µM
GI50 (HOP-92 NSCLC): > 87.5 µM
TGI (HOP-92 NSCLC): > 100 µM
GI50 (HS 578T breast): 25.5 µM
TGI (HS 578T breast): > 100 µM
GI50 (HT29 colon): > 100 µM
TGI (HT29 colon): > 100 µM
GI50 (IGROV1 ovarian): > 100 µM
TGI (IGROV1 ovarian): > 100 µM
GI50 (KM12 colon): > 100 µM
TGI (KM12 colon): > 100 µM
GI50 (LOX IMVI melanoma): > 100 µM
TGI (LOX IMVI melanoma): > 100 µM
GI50 (M14 melanoma): > 100 µM
TGI (M14 melanoma): > 100 µM
GI50 (MALME-3M melanoma): > 100 µM
TGI (MALME-3M melanoma): > 100 µM
GI50 (MCF7 breast): > 100 µM
TGI (MCF7 breast): > 100 µM
GI50 (MDA-MB-231 breast): > 100 µM
TGI (MDA-MB-231 breast): > 100 µM
GI50 (MDA-MB-435 melanoma): > 100 µM
TGI (MDA-MB-435 melanoma): > 100 µM
GI50 (MDA-MB-468 breast): > 100 µM
TGI (MDA-MB-468 breast): > 100 µM
GI50 (MOLT-4 leukemia): > 87.1 µM
TGI (MOLT-4 leukemia): > 100 µM
TGI (NCI-H226 lung): > 100 µM
GI50 (NCI-H23 lung): > 100 µM
TGI (NCI-H23 lung): > 100 µM
GI50 (NCI-H322M lung): > 100 µM
TGI (NCI-H322M lung): > 100 µM
GI50 (NCI-H460 NSCLC): > 100 µM
TGI (NCI-H460 NSCLC): > 100 µM
GI50 (NCI-H522 lung): > 100 µM
TGI (NCI-H522 lung): > 100 µM
GI50 (NCI/ADR-RES ovarian): > 100 µM
TGI (NCI/ADR-RES ovarian): > 100 µM
GI50 (OVCAR-3 ovarian): > 100 µM
TGI (OVCAR-3 ovarian): > 100 µM
GI50 (OVCAR-4 ovarian): > 100 µM
TGI (OVCAR-4 ovarian): > 100 µM
GI50 (OVCAR-5 ovarian): > 100 µM
TGI (OVCAR-5 ovarian): > 100 µM
GI50 (OVCAR-8 ovarian): > 100 µM
TGI (OVCAR-8 ovarian): > 100 µM
GI50 (PC-3 prostate): > 100 µM
TGI (PC-3 prostate): > 100 µM
GI50 (RPMI-8226 leukemia): > 71.1 µM
TGI (RPMI-8226 leukemia): > 100 µM
GI50 (RXF 393 renal): > 21.9 µM
TGI (RXF 393 renal): > 100 µM
GI50 (SF-268 CNS): > 100 µM
TGI (SF-268 CNS): > 100 µM
GI50 (SF-295 CNS): > 100 µM
TGI (SF-295 CNS): > 100 µM
GI50 (SF-539 CNS): 10.2 µM
TGI (SF-539 CNS): > 100 µM
GI50 (SK-MEL-28 melanoma): > 100 µM
TGI (SK-MEL-28 melanoma): > 100 µM
GI50 (SK-MEL-5 melanoma): > 100 µM
TGI (SK-MEL-5 melanoma): > 100 µM
GI50 (SK-OV-3 ovarian): > 100 µM
TGI (SK-OV-3 ovarian): > 100 µM
GI50 (SN12C renal): > 100 µM
TGI (SN12C renal): > 100 µM
GI50 (SNB-19 CNS): > 100 µM
TGI (SNB-19 CNS): > 100 µM
GI50 (SNB-75 CNS): 4.3 µM
TGI (SNB-75 CNS): > 29.4 µM
GI50 (SR leukemia): > 61.5 µM
TGI (SR leukemia): > 100 µM
GI50 (SW-620 colon): > 100 µM
TGI (SW-620 colon): > 100 µM
GI50 (T-47D breast): > 100 µM
TGI (T-47D breast): > 100 µM
GI50 (TK-10 renal): > 100 µM
TGI (TK-10 renal): > 100 µM
GI50 (U251 glioblastoma): > 100 µM
TGI (U251 glioblastoma): > 100 µM
GI50 (UACC-257 melanoma): > 100 µM
TGI (UACC-257 melanoma): > 100 µM
GI50 (UACC-62 melanoma): > 100 µM
TGI (UACC-62 melanoma): > 100 µM
GI50 (UO-31 renal): > 96.2 µM
TGI (UO-31 renal): > 100 µM
